This note sets out measurements from patent US10271552B2, “Heterocyclic compounds as pesticides” (Bayer CropScience Aktiengesellschaft, priority 2015, dated 2019).

Holding throughout (format): in vivo
In data set [1] the test system is Myzus persicae. As to the kind of experiment: Myzus persicae spray test. To be noted: foliar, Chinese cabbage leaf disks, all instars, after 5-6 days. How it is done: Myzus persicae—Spray Test
(§1) Solvent: 78.0 parts by weight acetone • 1.5 parts by weight dimethylformamide
(§2) Emulsifier: alkylarylpolyglycol ether
(§3) To produce a suitable preparation of active compound, 1 part by weight of active compound is mixed with the stated amount of solvents and is diluted with water, containing an emulsifier concentration of 1000 ppm, to the desired concentration. Further test concentrations are prepared by dilution with emulsifier containing water.
Chinese cabbage (Brassica pekinensis) leaf disks infected with all instars of the green peach aphid (Myzus persicae), are sprayed with a preparation of the active ingredient of the desired concentration.
After 5-6 days mortality in % is determined. 100% means all aphids have been killed and 0% means none of the aphids have been killed.

In data set [2] the test system is Phaedon cochleariae. As to the kind of experiment: Phaedon cochleariae spray test. Particulars: foliar, 168 h, Chinese cabbage leaf disks, larvae, after 7 days. How it is done:
Phaedon cochleariae—Spray Test
(§4) Solvent: 78.0 parts by weight of acetone • • 1.5 parts by weight of dimethylformamide
as §2, §3
Chinese cabbage (Brassica pekinensis) leaf disks are sprayed with a preparation of the active ingredient of the desired concentration. Once dry, the leaf disks are infested with mustard beetle larvae (Phaedon cochleariae).
After 7 days mortality in % is determined. 100% means all beetle larvae have been killed and 0% means none of the beetle larvae have been killed.

Data set [3] concerns Plutella xylostella. The data set is described as follows: Plutella xylostella spray test. To be noted: 100 ppm; cabbage leaves, larvae; after 7 days. How it is done: Plutella xylostella—Spray Test
Solvent: 14 parts by weight of dimethylformamide
Emulsifier: alkylaryl polyglycol ether
To produce a suitable preparation of active compound, 1 part by weight of active compound is mixed with the stated amount of solvent and is diluted with water, containing an emulsifier concentration of 1000 ppm, to the desired concentration. Further test concentrations are prepared by dilution with emulsifier containing water.
Cabbage leaves (Brassica oleracea) are treated by being sprayed with the preparation of the active compound of the desired concentration and are infested with larvae of the diamondback moth (Plutella xylostella).
After 7 days, mortality in % is determined. 100% means all the caterpillars have been killed and 0% means none of the caterpillars have been killed.

The subject of data set [4] is Boophilus microplus. As to the kind of experiment: Boophilus microplus injection test. To be noted: 20 μg/animal injected; adult engorged female ticks; after 7 days. How it is done:
Boophilus microplus—Injection Test
(§5) Solvent: dimethyl sulfoxide
To produce a suitable preparation of active compound, 10 mg of active compound are dissolved in 0.5 ml solvent, and the concentrate is diluted with solvent to the desired concentration.
Five adult engorged female ticks (Boophilus microplus) are injected with 1 μl compound solution into the abdomen. The ticks are transferred into replica plates and incubated in a climate chamber.
After 7 days egg deposition of fertile eggs is monitored. Eggs where fertility is not visible are stored in a climate chamber till hatching after about 42 days. An efficacy of 100% means all eggs are infertile; 0% means all eggs are fertile.

Data set [5] concerns Nilaparvata lugens. The data set is described as follows: Nilaparvata lugens spray test (solvent 52.5 acetone / 7 dimethylformamide). Particulars: 96 h, rice plants, larvae, after 4 days. As for the experimental part: Nilaparvata lugens—Spray Test
(§6) Solvent: 52.5 parts by weight of acetone • 7 parts by weight of dimethylformamide
(§7) Emulsifier: alkylaryl polyglycolether
To produce a suitable preparation of active compound, 1 part by weight of active compound is mixed with the stated amount of solvents and is diluted with water, containing an emulsifier concentration of 1000 ppm, to the desired concentration. Further test concentrations are prepared by dilution with emulsifier containing water. Ammonium salt and/or penetration enhancer in a dosage of 1000 ppm are added to the desired concentration if necessary.
Rice plants (Oryza sativa) are treated by being sprayed with the desired concentration of the active compound and are infested with larvae of the brown planthopper (Nilaparvata lugens).
After 4 days mortality in % is determined. 100% means all planthoppers have been killed and 0% means none of the planthoppers have been killed.

The test system of data set [6] is Nezara viridula. The data set is described as follows: Nezara viridula spray test (solvent 52.5 acetone / 7 dimethylformamide). Particulars: 96 h, barley plants, larvae, after 4 days. How it is done:
Nezara viridula—Spray Test
as §6, §7
To produce a suitable preparation of active compound, 1 part by weight of active compound is mixed with the stated amount of solvent, and the concentrate is diluted with water, containing an emulsifier concentration of 1000 ppm, to the desired concentration. Ammonium salt and/or penetration enhancer in a dosage of 1000 ppm are added to the desired concentration if necessary.
Barley plants (Hordeum vulgare) infested with larvae of the southern green stink bug (Nezara viridula) are sprayed with a test solution containing the desired concentration of the active ingredient.
After 4 days mortality in % is determined. 100% means all the stink bugs have been killed; 0% means none of the stink bugs have been killed.

The subject of data set [7] is Haemonchus contortus. The data set is described as follows: Haemonchus contortus test. To be noted: for larval mortality (efficacy): 20 ppm, larvae, after 5 days. How it is done: Haemonchus contortus—Test
as §5
To produce a suitable preparation of active compound, 10 mg of active compound are dissolved in 0.5 ml solvent, and the concentrate is diluted with “Ringer's solution” to the desired concentration.
Approximately 40 larvae of the red stomach worm (Haemonchus contortus) are transferred into a test tube containing compound solution.
After 5 days the percentage of larval mortality is recorded. 100% efficacy means all larvae are killed, 0% efficacy means no larvae are killed.

In data set [8] the test system is Meloidogyne incognita. The data set is described as follows: Meloidogyne incognita test. Particulars: 20 ppm; eggs and larvae, salad seeds in sand; after 14 days. As for the experimental part: Meloidogyne incognita—Test
Solvent: 125.0 parts by weight of acetone
To produce a suitable preparation of active compound, 1 part by weight of active compound is mixed with the stated amount of solvent, and the concentrate is diluted with water to the desired concentration.
Vessels are filled with sand, a solution of the active ingredient, a suspension containing eggs and larvae of the southern root-knot nematode (Meloidogyne incognita) and salad seeds. The salad seeds germinate and the seedlings grow. Galls develop in the roots.
After 14 days the nematicidal activity is determined on the basis of the percentage of gall formation. 100% means no galls were found and 0% means the number of galls found on the roots of the treated plants was equal to that in untreated control plants.

Data set [9] concerns Lucilia cuprina. As to the kind of experiment: whole plant or invertebrate. Particulars: 48 h. How it is done: as §5
10 mg active compound are dissolved in 0.5 ml Dimethylsulfoxid. Serial dilutions are made to obtain the desired rates.
Approximately 20 1st instar larvae of the Australian sheep blowfly (Lucilia cuprina) are transferred into a test tube containing minced horse meat and compound solution of the desired concentration.
After 2 days mortality in % is determined. 100% means all the larvae have been killed; 0% means none of the larvae have been killed.

The subject of data set [10] is Tetranychus urticae. The data set is described as follows: Tetranychus urticae spray test OP-resistant. To be noted: foliar, 144 h, French bean leaf disks, all instars, after 6 days. As for the experimental part:
Tetranychus urticae—Spray Test OP-Resistant
as §1, §2, §3
French bean (Phaseolus vulgaris) leaf disks infected with all instars of the two spotted spidermite (Tetranychus urticae), are sprayed with a preparation of the active ingredient of the desired concentration.
After 6 days mortality in % is determined. 100% means all spider mites have been killed and 0% means none of the spider mites have been killed.

The test system of data set [11] is Ctenocephalides felis. As to the kind of experiment: Ctenocephalides felis in-vitro contact test, adult cat flea. Particulars: 5 μg/cm^2 (=500 g/ha), after 48 hours. How it is done: Ctenocephalides felis—In-Vitro Contact Tests Adult Cat Flea
9 mg compound is solved in 1 ml acetone and diluted with acetone to the desired concentration. 250 μl of the test solution is filled in 25 ml glass test tubes and homogeneously distributed on the inner walls by rotation and tilting on a shaking device (2 h at 30 rpm). With a compound concentration of 900 ppm, an inner surface of 44.7 cm^2 and a homogeneous distribution, a dose of 5 μg/cm^2 is achieved.
After the solvent has evaporated, each test tube is filled with 5-10 adult cat fleas (Ctenocephalides felis), closed with a perforated lid and incubated in a lying position at room temperature and relative humidity. After 48 hours efficacy is determined. The fleas are patted on the ground of the tubes and are incubated on a heating plate at 45-50° C. for at most 5 minutes. Immotile or uncoordinated moving fleas, which are not able to escape the heat by climbing upwards, are marked as dead or moribund.
An efficacy of 100% means all fleas are dead or moribund; 0% means no fleas are dead or moribund.

The test system of data set [12] is Diabrotica balteata. The data set is described as follows: Diabrotica balteata spray test. Particulars: 160 μg/well; germinated wheat seeds, larvae; after 7 days. As for the experimental part:
Diabrotica Balteata—Spray Test
as §4, §2
To produce a suitable preparation of active compound, 1 part by weight of active compound is mixed with the stated amount of solvent, and the concentrate is diluted with water, containing an emulsifier concentration of 1000 ppm, to the desired concentration. Further test concentrations are prepared by dilution with emulsifier containing water.
Soaked wheat seeds (Triticum aestivum) are placed in a multiple well plate filled with agar and some water and are incubated for 1 day to germinate (5 seeds per well). The germinated wheat seeds are sprayed with a test solution containing the desired concentration of the active ingredient. Afterwards each unit is infected with 10-20 larvae of the banded cucumber beetle (Diabrotica balteata).
After 7 days efficacy in % is determined. 100% means all the seedlings have grown up like in the untreated, uninfected control; 0% means none of the seedlings have grown.

Data set [13] concerns Ctenocephalides felis. As to the kind of experiment: whole plant or invertebrate. To be noted: po, 48 h. As for the experimental part:
Ctenocephalides felis—Oral Test
as §5
To produce a suitable preparation of active compound, 10 mg of active compound are dissolved in 0.5 ml solvent, and the concentrate is diluted with cattle blood to the desired concentration.
Approximately 20 adult unfed cat fleas (Ctenocephalides felis) are placed in flea chambers. The blood chamber, sealed with parafilm on the bottom, are filled with cattle blood supplied with compound solution and placed on the gauze covered top of the flea chamber, so that the fleas are able to suck the blood. The blood chamber is heated to 37° C. whereas the flea chamber is kept at room temperature.
After 2 days mortality in % is determined. 100% means all the fleas have been killed; 0% means none of the fleas have been killed.

Take `O=C(Nc1nc(-c2ncc(C(F)(F)F)cc2Cl)ns1)c1cccnc1C(F)(F)F` [Compound I-2-3, N-{3-[3-Chloro-5-(trifluoromethyl)pyridin-2-yl]-1,2,4-thiadiazol-5-yl}-2-(trifluoromethyl)nicotinamide]: the results for the mortality at 500 g/ha in data set [1] and in data set [2] were not below 70% and not below 80%, respectively.
In the case of `O=C(Nc1nc(-c2c(F)cccc2F)ns1)c1cccc(F)c1C(F)(F)F` [Compound I-1-11], in data set [3], the mortality is 100%. The “efficacy (infertile eggs)” value in [4] is recorded as 100%.
Turning to `O=C(Nc1nc(-c2c(C(F)(F)F)cccc2C(F)(F)F)ns1)c1cccnc1C(F)(F)F` [Compound I-1-65, N-{3-[2,6-Bis(trifluoromethyl)phenyl]-1,2,4-thiadiazol-5-yl}-2-(trifluoromethyl)nicotinamide], the mortality at 500 g/ha in data set [5] is not below 80%; in [6], not below 90%.
As for `O=C(Nc1nc(-c2ccc(F)cc2F)ns1)c1cccnc1C(F)(F)F` [Compound I-1-56], the “larval mortality (efficacy)” value in [7] amounted to 80%.
On to `O=C(Nc1nc(-c2c(F)cccc2F)ns1)c1ccccc1[N+](=O)[O-]` [Compound I-1-10], for which the “nematicidal activity (gall formation)” value in [8] was 100%. The molecule also gave a mortality in [3] of 100%.
`O=C(Nc1nc(-c2c(F)cccc2F)ns1)c1ccccc1F` [Compound I-1-2]: the “nematicidal activity (gall formation)” value in data set [8] stood at 100%. In addition, in data set [7], the “larval mortality (efficacy)” value was determined as 100%.
For `O=C(Nc1nc(-c2c(F)cccc2F)ns1)c1ccccc1Br` [Compound I-1-5, 2-Bromo-N-[3-(2,6-difluorophenyl)-1,2,4-thiadiazol-5-yl]benzamide], the mortality at 100 ppm in [9] was in the range of 70 to 100%. The “nematicidal activity (gall formation)” value in data set [8] is given as 90%. Further, the results for the mortality at 500 g/ha in [10] and in data set [2] were not below 70% and not below 80%, respectively. Besides, the “efficacy (infertile eggs)” value in [4] came out at 100%.
Regarding `O=C(Nc1nc(-c2c(F)cccc2F)ns1)c1cccnc1C(F)(F)F.[Na+]` [Compound I-1-30, Sodium [3-(2,6-difluorophenyl)-1,2,4-thiadiazol-5-yl]{[2-(trifluoromethyl)pyridin-3-yl]carbonyl}azanide], the “nematicidal activity (gall formation)” value in [8] came out at 100%. For the same molecule, the mortality at 500 g/ha in data set [10] is not below 70%; in data set [6], not below 90%; in data set [2], not below 80%. In addition, in data set [11], the “efficacy (fleas dead or moribund)” value came out at 90%. Also, the “efficacy (infertile eggs)” value in data set [4] was found to be 100%.
Turning to `O=C(Nc1nc(-c2c(F)cccc2F)ns1)c1cccnc1C(F)(F)F` [Compound I-1-6, N-[3-(2,6-difluorophenyl)-1,2,4-thiadiazol-5-yl]-2-(trifluoromethyl)nicotinamide], the mortality at 100 ppm in [9] and in [13] was 100% each time. Moreover, the mortality at 500 g/ha in [5] was not below 80%; in data set [1] it was not below 70%. Besides, the “efficacy (seedling growth)” value in [12] came to 80%. In addition, the “nematicidal activity (gall formation)” value in data set [8] amounted to 100%. Besides, in [11], the “efficacy (fleas dead or moribund)” value is listed as 100%. Also, the “efficacy (infertile eggs)” value in data set [4] was 100%.
Take `O=C(Nc1nc(-c2ncccc2Cl)ns1)c1ccccc1Cl` [Compound I-2-6, 2-Chloro-N-[3-(3-chloropyridin-2-yl)-1,2,4-thiadiazol-5-yl]benzamide]: the figures for the mortality at 500 g/ha in data set [5], in [10] and in data set [2] were not below 80%, not below 70% and not below 80%, respectively.
Take `O=C(Nc1nc(-c2c(F)cccc2F)ns1)c1c(F)cccc1F` [Compound I-1-1, N-[3-(2,6-difluorophenyl)-1,2,4-thiadiazol-5-yl]-2,6-difluorobenzamide]: the “nematicidal activity (gall formation)” value in data set [8] is 90%. Moreover, the mortality at 500 g/ha in [10] is not below 70%; in data set [6], not below 90%; in data set [2] it was not below 80%. In addition, the mortality at 100 ppm in data set [13] is 95%. In addition, the mortality at 20 ppm in data set [7] (Haemonchus contortus, 120 h, read-out: larval mortality (efficacy)) worked out at 80%. Moreover, the “efficacy (infertile eggs)” value in data set [4] came out at 100%.
